Measurements as given in patent US20230096766A1, “AMINO ACID HAVING FUNCTIONAL GROUP CAPABLE OF INTERMOLECULAR HYDROGEN BONDING, PEPTIDE COMPOUND CONTAINING SAME AND METHOD FOR PRODUCTION THEREOF” (Chugai Seiyaku Kabushiki Kaisha, priority 2018, published 2023).
Where a SMILES comes first, the peptide text is derived from it. Bridges are numbered along the chain shown (N, C = ends). [ ]: non-standard residue; d: D form. The star is where a group is joined. Phe(4-CF3) = N[C@@H](Cc1ccc(C(F)(F)F)cc1)C(=O)O; NMehPhe = CN[C@@H](CCc1ccccc1)C(=O)O; NMeF = CN[C@@H](Cc1ccccc1)C(=O)O; NMeI = CC[C@H](C)[C@H](NC)C(=O)O; NMeL = CN[C@@H](CC(C)C)C(=O)O; NMeV = CN[C@H](C(=O)O)C(C)C; NMeAbu = CC[C@H](NC)C(=O)O; Piperidide = C1CCN(*)CC1; CH2CONHMe = CNC(=O)C*; Me2NCH2CH2 = CN(C)CC*; NBuGly = CCCCNCC(=O)O; NPrGly = CCCNCC(=O)O; Sar = CNCC(=O)O; tBu = CC(C)(C)*

Assay: in vitro
Settings: human, Caco-2, Caco-2

| SMILES | Papp |
| --- | --- |
| CCCN1CC(=O)N(C)[C@@H](CC(C)C)C(=O)N[C@@H](COC(C)(C)C)C(=O)N(C)[C@@H](Cc2ccccc2)C(=O)N(C)[C@@H](C(C)C)C(=O)N[C@H](C(=O)N2CCCCC2)CC(=O)N[C@H](C(C)C)C(=O)N(C)[C@@H](Cc2ccccc2)C(=O)N[C@@H](COCCN(C)C)C(=O)N(C)[C@@H](CC(C)C)C(=O)N[C@@H]([C@@H](C)O)C1=O [pd50] ([dV][NMeF]S(Me2NCH2CH2)[NMeL]T[NPrGly][NMeL]S(tBu)[NMeF][NMeV]D-Piperidide; lactam N-11) | 0.15 ×10⁻⁶ cm/s |
| CCCCN1CC(=O)N(C)[C@@H](CC(C)C)C(=O)N[C@@H](COCCN(C)C)C(=O)N(C)[C@@H](Cc2ccccc2)C(=O)N(C)[C@@H](C(C)C)C(=O)N[C@H](C(=O)N2CCCCC2)CC(=O)N[C@H](CC(C)C)C(=O)N(C)[C@@H](Cc2ccccc2)C(=O)N[C@@H](CC(C)C)C(=O)N(C)[C@@H](CC(C)C)C(=O)N[C@@H]([C@@H](C)O)C1=O [pd51] ([dL][NMeF]L[NMeL]T[NBuGly][NMeL]S(Me2NCH2CH2)[NMeF][NMeV]D-Piperidide; lactam N-11) | 0.07 ×10⁻⁶ cm/s |
| CCCN1CC(=O)N(C)[C@@H](CC(C)C)C(=O)N[C@@H](COCCN(C)C)C(=O)N(C)[C@@H](Cc2ccccc2)C(=O)N(C)[C@@H](C(C)C)C(=O)N[C@H](C(=O)N2CCCCC2)CC(=O)N[C@H](C(C)C)C(=O)N(C)[C@@H](Cc2ccccc2)C(=O)N[C@@H](CC(C)C)C(=O)N(C)[C@@H](CC(C)C)C(=O)N[C@@H]([C@@H](C)O)C1=O [pd52] ([dV][NMeF]L[NMeL]T[NPrGly][NMeL]S(Me2NCH2CH2)[NMeF][NMeV]D-Piperidide; lactam N-11) | 0.12 ×10⁻⁶ cm/s |
| CCCCN1CC(=O)N(C)[C@@H](CC(C)C)C(=O)N[C@@H](COC(C)(C)C)C(=O)N(C)[C@@H](Cc2ccccc2)C(=O)N(C)[C@@H](C(C)C)C(=O)N[C@H](C(=O)N2CCCCC2)CC(=O)N[C@H](C(C)C)C(=O)N(C)[C@@H](Cc2ccccc2)C(=O)N[C@@H](COCCN(C)C)C(=O)N(C)[C@@H](CC(C)C)C(=O)N[C@@H]([C@@H](C)O)C1=O [pd53] ([dV][NMeF]S(Me2NCH2CH2)[NMeL]T[NBuGly][NMeL]S(tBu)[NMeF][NMeV]D-Piperidide; lactam N-11) | 0.14 ×10⁻⁶ cm/s |

Same assay, conditions: human, Caco-2, Caco-2 (cm/sec)

| SMILES | Papp |
| --- | --- |
| CC[C@H]1C(=O)N[C@@H](CC(C)C)C(=O)N(C)[C@@H](CC(C)C)C(=O)N(C)[C@@H](Cc2ccccc2)C(=O)N[C@@H](Cc2ccc(O)cc2)C(=O)N(C)[C@@H](CC(C)C)C(=O)N(C)[C@@H](CC(C)C)C(=O)N[C@@H]([C@@H](C)O)C(=O)N(C)CC(=O)N(C)[C@@H](CC(C)C)C(=O)N[C@H](C(=O)N2CCCCC2)CC(=O)N1C [Compound F05] ([NMeAbu]L[NMeL][NMeF]Y[NMeL][NMeL]T[Sar][NMeL]D-Piperidide; lactam N-11) | 0.38 ×10⁻⁶ cm/s |
| CC[C@H]1C(=O)N[C@@H](Cc2ccc(O)cc2)C(=O)N(C)[C@@H](CC(C)C)C(=O)N(C)[C@@H](CC(C)C)C(=O)N[C@@H](C(C)C)C(=O)N(C)[C@@H](Cc2ccccc2)C(=O)N(C)[C@@H](CC(C)C)C(=O)N[C@@H]([C@@H](C)O)C(=O)N(C)CC(=O)N(C)[C@@H](CC(C)C)C(=O)N[C@H](C(=O)N2CCCCC2)CC(=O)N1C [Compound F06] ([NMeAbu]Y[NMeL][NMeL]V[NMeF][NMeL]T[Sar][NMeL]D-Piperidide; lactam N-11) | 0.23 ×10⁻⁶ cm/s |
| CCCCN1CC(=O)N(C)[C@@H](Cc2ccccc2)C(=O)N(C)[C@@H](CC(C)C)C(=O)N[C@@H](CC(C)C)C(=O)N(C)[C@@H](CC(C)C)C(=O)N[C@H](C(=O)N2CCCCC2)CC(=O)N(C)CC(=O)N(C)[C@@H](CC(C)C)C(=O)N[C@@H](Cc2ccc(O)cc2)C(=O)N(C)[C@@H](CC)C(=O)N[C@@H]([C@@H](C)O)C1=O [Compound F07] ([Sar][NMeL]Y[NMeAbu]T[NBuGly][NMeF][NMeL]L[NMeL]D-Piperidide; lactam N-11) | 0.54 ×10⁻⁶ cm/s |
| CCCCN1CC(=O)N(C)[C@@H](Cc2ccccc2)C(=O)N(C)[C@@H](CC(C)C)C(=O)N[C@@H](Cc2ccc(O)cc2)C(=O)N(C)[C@@H](CC(C)C)C(=O)N[C@H](C(=O)N2CCCCC2)CC(=O)N(C)CC(=O)N(C)[C@@H](CC(C)C)C(=O)N[C@@H]([C@@H](C)CC)C(=O)N(C)[C@@H](CC(C)C)C(=O)N[C@@H]([C@@H](C)O)C1=O [Compound F08] ([Sar][NMeL]I[NMeL]T[NBuGly][NMeF][NMeL]Y[NMeL]D-Piperidide; lactam N-11) | 0.05 ×10⁻⁶ cm/s |

Same assay, conditions: human, Caco-2, Caco-2 (membrane permeability)

| SMILES | Papp |
| --- | --- |
| CCCCN1CC(=O)N(C)[C@@H](CC(C)C)C(=O)N[C@@H](COCC(=O)NC)C(=O)N(C)[C@@H](CCc2ccccc2)C(=O)N(C)[C@@H](CC(C)C)C(=O)N[C@H](C(=O)N2CCCCC2)CC(=O)N[C@H](CC(C)C)C(=O)N(C)[C@@H](CC(C)C)C(=O)N[C@@H](Cc2ccccc2)C(=O)N(C)[C@@H](CC(C)C)C(=O)N[C@@H]([C@@H](C)O)C1=O [Compound I02] ([dL][NMeL]F[NMeL]T[NBuGly][NMeL]S(CH2CONHMe)[NMehPhe][NMeL]D-Piperidide; lactam N-11) | 0.052 ×10⁻⁶ cm/s |
| CNC(=O)COC[C@@H]1NC(=O)[C@H](CC(C)C)N(C)C(=O)C[C@@H](C(=O)N2CCCCC2)NC(=O)[C@H](CC(C)C)N(C)C(=O)CN(C)C(=O)[C@H]([C@@H](C)O)NC(=O)[C@H](CC(C)C)N(C)C(=O)[C@H](CCc2ccccc2)N(C)C(=O)[C@H](CC(C)C)NC(=O)[C@H](Cc2ccccc2)N(C)C(=O)[C@H](CC(C)C)N(C)C1=O [Compound I03] ([NMeL]S(CH2CONHMe)[NMeL][NMeF]L[NMehPhe][NMeL]T[Sar][NMeL]D-Piperidide; lactam N-11) | 0.25 ×10⁻⁶ cm/s |
| CCCN1CC(=O)N(C)[C@@H](CC(C)C)C(=O)N[C@H](C(=O)N2CCCCC2)CC(=O)N(C)[C@@H](CC(C)C)C(=O)N[C@@H](Cc2ccccc2)C(=O)N(C)[C@@H](CC(C)C)C(=O)N(C)[C@@H](CC(C)C)C(=O)N[C@@H](COCC(=O)NC)C(=O)N(C)[C@@H](CCc2ccccc2)C(=O)N(C)[C@@H](CC(C)C)C(=O)N[C@@H]([C@@H](C)O)C1=O [Compound I04] ([NMeL]F[NMeL][NMeL]S(CH2CONHMe)[NMehPhe][NMeL]T[NPrGly][NMeL]D-Piperidide; lactam N-11) | 0.55 ×10⁻⁶ cm/s |
| CCCCN1CC(=O)N(C)[C@@H](Cc2ccccc2)C(=O)N[C@@H](COCC(=O)NC)C(=O)N(C)[C@@H](CC(C)C)C(=O)N[C@@H]([C@@H](C)O)C(=O)N(CCC)CC(=O)N(C)[C@@H](Cc2ccccc2)C(=O)N(C)[C@@H](CC(C)C)C(=O)N[C@@H](CC(C)C)C(=O)N(C)[C@@H](CC(C)C)C(=O)N[C@H](C(=O)N2CCCCC2)CC1=O [Compound I05] ([NBuGly][NMeF]S(CH2CONHMe)[NMeL]T[NPrGly][NMeF][NMeL]L[NMeL]D-Piperidide; lactam N-11) | 0.8 ×10⁻⁶ cm/s |
| CCCCN1CC(=O)N(C)[C@@H](Cc2ccccc2)C(=O)N[C@@H]([C@@H](C)CC)C(=O)N(C)[C@@H](CC(C)C)C(=O)N[C@@H]([C@@H](C)O)C(=O)N(CCC)CC(=O)N(C)[C@@H](Cc2ccccc2)C(=O)N(C)[C@@H](CC(C)C)C(=O)N[C@@H](COCC(=O)NC)C(=O)N(C)[C@@H](CC(C)C)C(=O)N[C@H](C(=O)N2CCCCC2)CC1=O [Compound I06] ([NBuGly][NMeF]I[NMeL]T[NPrGly][NMeF][NMeL]S(CH2CONHMe)[NMeL]D-Piperidide; lactam N-11) | 0.24 ×10⁻⁶ cm/s |
| CCCCN1CC(=O)N(C)[C@@H](CC(C)C)C(=O)N[C@@H](CC(C)C)C(=O)N(C)[C@@H](Cc2ccccc2)C(=O)N(C)[C@@H]([C@@H](C)CC)C(=O)N[C@H](C(=O)N2CCCCC2)CC(=O)N[C@H](CC(C)C)C(=O)N(C)[C@@H](Cc2ccccc2)C(=O)N[C@@H](CCC(=O)NC)C(=O)N(C)[C@@H](CC(C)C)C(=O)N[C@@H]([C@@H](C)O)C1=O [Compound J01] ([dL][NMeF]E(NHMe)[NMeL]T[NBuGly][NMeL]L[NMeF][NMeI]D-Piperidide; lactam N-11) | 0.062 ×10⁻⁶ cm/s |
| CCCCN1CC(=O)N(C)[C@@H](CC(C)C)C(=O)N[C@@H](CCC(=O)NC)C(=O)N(C)[C@@H](Cc2ccccc2)C(=O)N(C)[C@@H]([C@@H](C)CC)C(=O)N[C@H](C(=O)N2CCCCC2)CC(=O)N[C@H](CC(C)C)C(=O)N(C)[C@@H](CC(C)C)C(=O)N[C@@H](Cc2ccc(C(F)(F)F)cc2)C(=O)N(C)[C@@H](CC(C)C)C(=O)N[C@@H]([C@@H](C)O)C1=O [Compound J02] ([dL][NMeL][Phe(4-CF3)][NMeL]T[NBuGly][NMeL]E(NHMe)[NMeF][NMeI]D-Piperidide; lactam N-11) | 0.004 ×10⁻⁶ cm/s |
| CCCN1CC(=O)N(C)[C@@H](CC(C)C)C(=O)N[C@H](C(=O)N2CCCCC2)CC(=O)N(C)[C@@H](CC(C)C)C(=O)N[C@@H](CCC(=O)NC)C(=O)N(C)[C@@H](CC(C)C)C(=O)N(C)[C@@H](Cc2ccccc2)C(=O)N[C@@H](CC(C)C)C(=O)N(C)[C@@H](Cc2ccccc2)C(=O)N(C)[C@@H]([C@@H](C)CC)C(=O)N[C@@H]([C@@H](C)O)C1=O [Compound J03] ([NMeL]E(NHMe)[NMeL][NMeF]L[NMeF][NMeI]T[NPrGly][NMeL]D-Piperidide; lactam N-11) | 0.21 ×10⁻⁶ cm/s |
| CCCN1CC(=O)N(C)[C@@H](CC(C)C)C(=O)N[C@H](C(=O)N2CCCCC2)CC(=O)N(C)[C@@H](CC(C)C)C(=O)N[C@@H](Cc2ccc(C(F)(F)F)cc2)C(=O)N(C)[C@@H](CC(C)C)C(=O)N(C)[C@@H](CC(C)C)C(=O)N[C@@H](CCC(=O)NC)C(=O)N(C)[C@@H](Cc2ccccc2)C(=O)N(C)[C@@H]([C@@H](C)CC)C(=O)N[C@@H]([C@@H](C)O)C1=O [Compound J04] ([NMeL][Phe(4-CF3)][NMeL][NMeL]E(NHMe)[NMeF][NMeI]T[NPrGly][NMeL]D-Piperidide; lactam N-11) | 0.087 ×10⁻⁶ cm/s |
| CCCCN1CC(=O)N(C)[C@@H](Cc2ccccc2)C(=O)N[C@@H](CCC(=O)NC)C(=O)N(C)[C@@H](CC(C)C)C(=O)N[C@@H]([C@@H](C)O)C(=O)N(CCCC)CC(=O)N(C)[C@@H](Cc2ccccc2)C(=O)N(C)[C@@H](CC(C)C)C(=O)N[C@@H](CC(C)C)C(=O)N(C)[C@@H]([C@@H](C)CC)C(=O)N[C@H](C(=O)N2CCCCC2)CC1=O [Compound J05] ([NBuGly][NMeF]E(NHMe)[NMeL]T[NBuGly][NMeF][NMeL]L[NMeI]D-Piperidide; lactam N-11) | 0.052 ×10⁻⁶ cm/s |
| CCCCN1CC(=O)N(C)[C@@H](Cc2ccccc2)C(=O)N[C@@H]([C@@H](C)CC)C(=O)N(C)[C@@H](CC(C)C)C(=O)N[C@@H]([C@@H](C)O)C(=O)N(CCCC)CC(=O)N(C)[C@@H](Cc2ccccc2)C(=O)N(C)[C@@H](CC(C)C)C(=O)N[C@@H](CCC(=O)NC)C(=O)N(C)[C@@H]([C@@H](C)CC)C(=O)N[C@H](C(=O)N2CCCCC2)CC1=O [Compound J06] ([NBuGly][NMeF]I[NMeL]T[NBuGly][NMeF][NMeL]E(NHMe)[NMeI]D-Piperidide; lactam N-11) | 0.0085 ×10⁻⁶ cm/s |
